Test results taken from paper PMC10796436, “Peptidyl nitroalkene inhibitors of main protease rationalized by computational and crystallographic investigations as antivirals against SARS-CoV-2” (Communications Chemistry, 2024).
Values joined by “and” are separate entries in the source; they are usually repeats but may differ in a detail not shown here. Equal values may be shown once. Read-outs that look alike come from different tables or passages of the source.

Tests used:
[1] = calibration compound; cited from earlier work
[2] = biological target: T1, SARS-CoV-2 M^pro (Severe acute respiratory syndrome coronavirus 2, UniProt P0DTD1); assay: biochemical; conditions: M^pro from pMal-M^pro vector
[3] = biological target: T1, SARS-CoV-2 M^pro; assay: Mpro FRET inhibition, continuous fluorometric assay (Fluorolog-3), enzyme from pET21-M^pro vector; type: biochemical; conditions: read-out: Ki (μM)^b
[4] = biological target: T2, M^pro (Severe acute respiratory syndrome coronavirus 2, UniProt P0DTD1); assay: biochemical; type: binding
[5] = system: SARS-CoV-2; assay: microbe, parasite or virus in culture; type: cell-based; conditions: for EC50: Huh-7-ACE2, 24h p.t., MOI=0.1; for virus titer Mean (%): mean of Exp.1-3; for virus titer (pfu/ml) / virus titer (%) of conc 0: single experiments
[6] = biological target: T3, rhodesain (RhD) (Trypanosoma brucei rhodesiense, UniProt Q95PM0); assay: Rhodesain inhibition, fluorometric assay; type: biochemical; conditions: read-out: Ki RhD
T3 construct: made in house
T3 sequence (Q95PM0 entry or part of it): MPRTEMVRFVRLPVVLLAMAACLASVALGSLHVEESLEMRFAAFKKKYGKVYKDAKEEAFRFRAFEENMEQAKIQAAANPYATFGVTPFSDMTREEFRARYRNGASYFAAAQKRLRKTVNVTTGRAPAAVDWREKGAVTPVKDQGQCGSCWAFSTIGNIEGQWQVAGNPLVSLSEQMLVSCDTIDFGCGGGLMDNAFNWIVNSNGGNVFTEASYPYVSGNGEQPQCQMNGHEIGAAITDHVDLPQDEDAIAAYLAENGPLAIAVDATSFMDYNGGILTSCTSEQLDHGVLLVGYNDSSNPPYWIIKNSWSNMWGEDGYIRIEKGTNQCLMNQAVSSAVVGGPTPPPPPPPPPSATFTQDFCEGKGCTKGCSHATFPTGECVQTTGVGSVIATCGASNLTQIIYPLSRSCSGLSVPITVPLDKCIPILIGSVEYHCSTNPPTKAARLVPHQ

[7] = biological target: cruzain (CRZ) (Trypanosoma cruzi, UniProt P25779); assay: Cruzain inhibition, fluorometric assay; type: biochemical; conditions: read-out: Ki CRZ
cruzain (CRZ), sequence (P25779 123-467): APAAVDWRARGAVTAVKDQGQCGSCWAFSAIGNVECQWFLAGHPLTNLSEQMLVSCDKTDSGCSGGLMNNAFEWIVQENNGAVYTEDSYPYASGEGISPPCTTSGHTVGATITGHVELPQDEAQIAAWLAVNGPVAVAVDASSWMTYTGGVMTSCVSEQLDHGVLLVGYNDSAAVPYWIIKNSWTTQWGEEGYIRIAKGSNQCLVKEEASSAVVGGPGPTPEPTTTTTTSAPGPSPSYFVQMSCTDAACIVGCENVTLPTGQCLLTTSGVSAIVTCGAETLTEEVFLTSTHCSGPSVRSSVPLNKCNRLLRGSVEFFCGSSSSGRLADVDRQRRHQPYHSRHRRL

[8] = biological target: human matriptase (MT-SP1) (Homo sapiens, UniProt Q9Y5Y6); assay: Matriptase inhibition, fluorometric assay; type: biochemical; conditions: 20 μM
human matriptase (MT-SP1), sequence (Q9Y5Y6 615-855 limits assumed, other chains not shown): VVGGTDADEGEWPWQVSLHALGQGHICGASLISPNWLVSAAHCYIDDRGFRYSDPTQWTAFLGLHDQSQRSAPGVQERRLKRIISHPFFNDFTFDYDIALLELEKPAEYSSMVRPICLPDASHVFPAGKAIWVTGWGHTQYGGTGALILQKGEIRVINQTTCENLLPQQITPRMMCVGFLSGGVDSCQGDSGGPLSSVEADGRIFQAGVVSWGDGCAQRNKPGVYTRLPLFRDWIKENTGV

[9] = biological target: T4, cathepsin B (CatB) (Homo sapiens, UniProt P07858); assay: Cathepsin B inhibition, fluorometric assay; type: biochemical; conditions: read-out: Ki CatB
T4 construct: purchased Calbiochem (Merck Millipore)

[10] = biological target: T5, cathepsin L (CatL) (Homo sapiens, UniProt P07711); assay: Cathepsin L inhibition, fluorometric assay; type: biochemical; conditions: read-out: Ki CatL
T5 construct: purchased Calbiochem (Merck Millipore)
T5 sequence (P07711 114-288 limits assumed): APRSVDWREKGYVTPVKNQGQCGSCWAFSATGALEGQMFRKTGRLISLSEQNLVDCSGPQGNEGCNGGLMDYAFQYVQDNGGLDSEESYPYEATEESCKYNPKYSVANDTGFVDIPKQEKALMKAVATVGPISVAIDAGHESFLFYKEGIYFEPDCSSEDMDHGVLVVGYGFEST
T5 sequence (P07711 292-333 limits assumed): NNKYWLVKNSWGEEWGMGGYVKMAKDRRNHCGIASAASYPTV

[11] = biological target: Zika Virus NS2B/NS3 (bZiPro) (Zika virus, UniProt A0A024B7W1); assay: Zika virus protease inhibition, fluorometric assay; type: biochemical; conditions: 20 μM
Zika Virus NS2B/NS3 (bZiPro), sequence (A0A024B7W1 1425-1464): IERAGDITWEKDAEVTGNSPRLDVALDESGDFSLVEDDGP
Zika Virus NS2B/NS3 (bZiPro), sequence (A0A024B7W1 1503-1680): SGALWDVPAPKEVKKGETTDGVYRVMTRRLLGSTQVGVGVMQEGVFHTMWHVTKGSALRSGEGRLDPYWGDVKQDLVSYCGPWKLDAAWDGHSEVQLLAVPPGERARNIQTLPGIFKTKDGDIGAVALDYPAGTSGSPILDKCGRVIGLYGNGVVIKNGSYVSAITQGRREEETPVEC

[12] = in vitro; conditions: human
[13] = biological target: T2, M^pro; assay: Binding to M^pro by ultracentrifugation (sedimentation method)
[14] = biological target: T2, M^pro; type: biochemical; conditions: for Fluorescence reading (progress curve): triplicate wells
Description: Buffer: 20 mM Tris, 0.1 mM EDTA, 1 mM DTT, 200 mM NaCl pH = 7.5. For the dilution assay Nirmatrelvir[21] was used as a reversible control and LM188[54] as an irreversible control (Fig. 10).
The incubation was done at RT for 30 min in assay buffer. DMSO was used as a control. After incubation the Enzyme/Inhibitor (or DMSO) mixtures were diluted 100-fold in assay buffer.
The preincubation was done in assay buffer (20 mM Tris, 0.1 mM EDTA, 1 mM DTT, 200 mM NaCl, pH = 7.5), at RT for 30 min. After incubation the mixtures were diluted […]
proteolytic activity of the enzyme was measured as described for the enzymatic assays using the […]
activity was measured over 1 h.
Inhibition assay58. Trypsin: Enzyme: bovine trypsin purchased from Sigma-Aldrich (St. Louis, […]
Substrate: Cbz-FR-AMC purchased from Bachem (Bubendorf, Switzerland), [Substrate]: 40 µM […]
The activity against bovine trypsin was tested at 20 µM inhibitor concentration. […]

CC(=O)c1ccccc1 [Acetophenone]
Chromatographic Hydrophobicity Index (publication) [1]: 64.90

c1ccc2[nH]cnc2c1 [Benzimidazole]
Chromatographic Hydrophobicity Index (publication) [1]: 30.71

CCCC(=O)c1ccccc1 [Butyrophenone]
Chromatographic Hydrophobicity Index (publication) [1]: 88.49

O=C(N[C@@H](Cc1ccccc1)C(=O)N[C@H](/C=C/[N+](=O)[O-])CCc1ccccc1)OCc1ccccc1 [FGA86]
inhibition at 20 µM [2]: 17% | Ki [3]: 2.67 ± 0.29 µM | change of Tm of M^pro ([4]; 25 µM): 0.9 ± 0.4 °C | ΔTm at 25 µM ([4]; 25 µM, read-out: DTm (°C)): 0.9 °C | change of Tm of M^pro ([4]; 100 μM): −1.7 ± 0.4 °C

CC(C)CC(NC(=O)C=Cc1ccccc1)C(=O)NC(C=C[N+](=O)[O-])CC1CCNC1=O (centres unmarked) [FGA145]
EC50 [5]: 11.7 µM | EC50 ([5]; Severe acute respiratory syndrome coronavirus 2, 24 h): 11.7 µM | virus titer Mean (%) ([5]; conc 0.1): 99% | virus titer (pfu/ml) ([5]; conc 0.1): 1400000 pfu/ml and 1000000 pfu/ml and 1070000 pfu/ml | virus titer Mean (%) ([5]; conc 0.5): 119% | virus titer (%) of conc 0 ([5]; conc 0.5): 160% and 90% and 107% | virus titer (pfu/ml) ([5]; conc 0.5): 1600000 pfu/ml and 1800000 pfu/ml and 1070000 pfu/ml | virus titer Mean (%) ([5]; conc 1): 120% | virus titer (pfu/ml) ([5]; conc 1): 1400000 pfu/ml and 1500000 pfu/ml | virus titer Mean (%) ([5]; conc 5): 108.333% | virus titer (%) of conc 0 ([5]; conc 5): 120% and 75% and 130% | virus titer (pfu/ml) ([5]; conc 5): 1200000 pfu/ml and 1500000 pfu/ml and 1300000 pfu/ml | virus titer Mean (%) ([5]; conc 10): 25.6667% | virus titer (pfu/ml) ([5]; conc 10): 400000 pfu/ml and 200000 pfu/ml and 270000 pfu/ml | virus titer Mean (%) ([5]; conc 50): 0.07467% | virus titer (%) of conc 0 ([5]; conc 50): 0.2% and 0.01% and 0.014% | virus titer Mean (%) ([5]; conc 100): 0.017% | virus titer (%) of conc 0 ([5]; conc 100): 0.006% and 0.02% and 0.025% | Ki [6]: 1.63 ± 0.22 nM | Ki [2]: 3.71 ± 0.38 µM | Ki [7]: 12.6 ± 1.5 nM | MT-SP1 [8]: n.i. (no inhibition (<10%) was observed at a concentration of 20 μM) | Ki [3]: 9.82 ± 1.5 µM | Ki [9]: 206 ± 41 nM | Ki [10]: 53 ± 4.1 nM | change of Tm of M^pro ([4]; 25 µM): −1.1 ± 0.2 °C | ΔTm at 25 µM ([4]; 25 µM, read-out: DTm (°C)): -1.1 °C | change of Tm of M^pro ([4]; 100 μM): −3.7 ± 0.1 °C | bZiPro [11]: n.i. (no inhibition (<10%) was observed at a concentration of 20 μM) | CC50 [12]: > 100 µM | Fraction bound, Absorption ([13]; ligand concentration 0.5): 0.01689 | Fraction bound, Absorption ([13]; ligand concentration 1): 0.05068 | Fraction bound, Absorption ([13]; ligand concentration 5): 0.2419 | Fraction bound, Absorption ([13]; ligand concentration 10): 0.373 | Fraction bound, Absorption ([13]; ligand concentration 25): 0.7297 | Fraction bound, Absorption ([13]; ligand concentration 50): 0.9595 | Fraction bound, Absorption ([13]; ligand concentration 100): 1.009 | Kd ([13]; ultracentrifugation, 25 °C): 11.8 ± 1.05 µM

CC(C)C[C@H](NC(=O)[C@@H](NC(=O)[C@H](C)NC(=O)OC(C)(C)C)C(C)C)C(=O)N[C@H](/C=C/[N+](=O)[O-])CCc1ccccc1 [FGA159]
Ki [2]: 21.8 ± 1.5 µM | Ki [3]: 1.19 ± 0.18 µM | ΔTm at 5 µM ([4]; 5 µM, read-out: DTm (°C)): 2.6 °C | ΔTm at 25 µM ([4]; 25 µM, read-out: DTm (°C)): 2.5 °C | change of Tm of M^pro ([4]; concentration range between 5 and 100 μM): 2.5 ± 0.2 °C

CC(C)CC(NC(=O)C=Cc1ccccc1)C(=O)NC(C=C[N+](=O)[O-])CCc1ccccc1 (centres unmarked) [FGA177]
inhibition at 20 µM [2]: 25% | Ki [3]: 8.59 ± 1.6 µM | ΔTm at 25 µM ([4]; 25 µM, read-out: DTm (°C)): 0.1 °C | change of Tm of M^pro ([4]; range of 25 to 100 μM): 0.1 ± 0.2 °C

COc1cccc2[nH]c(C(=O)N[C@@H](CC(C)C)C(=O)N[C@H](/C=C/S(=O)(=O)c3ccccc3)C[C@@H]3CCNC3=O)cc12 [LM188, reference compound]
Fluorescence reading (progress curve) ([14]; Time 180.071 s): 253 and 247 | Fluorescence reading (progress curve) ([14]; Time 210.081 s): 256 and 250 | Fluorescence reading (progress curve) ([14]; Time 240.095 s): 254 and 247 | Fluorescence reading (progress curve) ([14]; Time 270.113 s): 256 and 248 | Fluorescence reading (progress curve) ([14]; Time 300.118 s): 253 and 248 and 250 | Fluorescence reading (progress curve) ([14]; Time 330.126 s): 256 and 248 and 247 | Fluorescence reading (progress curve) ([14]; Time 360.134 s): 249 and 246 and 248 | Fluorescence reading (progress curve) ([14]; Time 390.141 s): 253 and 250 and 249 | Fluorescence reading (progress curve) ([14]; Time 420.149 s): 251 and 247 and 248 | Fluorescence reading (progress curve) ([14]; Time 450.157 s): 255 and 249 and 250 | Fluorescence reading (progress curve) ([14]; Time 480.18 s): 255 and 244 | Fluorescence reading (progress curve) ([14]; Time 2881.2 s): 249 and 222 and 233 | Fluorescence reading (progress curve) ([14]; Time 2911.21 s): 247 and 222 and 232 | Fluorescence reading (progress curve) ([14]; Time 2941.22 s): 252 and 222 and 230 | Fluorescence reading (progress curve) ([14]; Time 2971.24 s): 250 and 221 and 231 | Fluorescence reading (progress curve) ([14]; Time 3001.25 s): 248 and 221 and 233 | Fluorescence reading (progress curve) ([14]; Time 3031.26 s): 247 and 219 and 231 | Fluorescence reading (progress curve) ([14]; Time 3061.27 s): 249 and 220 and 232 | Fluorescence reading (progress curve) ([14]; Time 3091.28 s): 249 and 219 and 230 | Fluorescence reading (progress curve) ([14]; Time 3121.29 s): 250 and 222 and 232 | Fluorescence reading (progress curve) ([14]; Time 3151.3 s): 246 and 219 and 232 | Fluorescence reading (progress curve) ([14]; Time 3181.31 s): 246 and 220 and 232 | Fluorescence reading (progress curve) ([14]; Time 3211.32 s): 246 and 221 and 231 | Fluorescence reading (progress curve) ([14]; Time 3241.33 s): 243 and 219 and 230 | Fluorescence reading (progress curve) ([14]; Time 3271.34 s): 248 and 221 and 229 | Fluorescence reading (progress curve) ([14]; Time 3301.35 s): 245 and 216 and 230 | Fluorescence reading (progress curve) ([14]; Time 3331.36 s): 246 and 218 and 230 | Fluorescence reading (progress curve) ([14]; Time 3361.37 s): 243 and 219 and 232 | Fluorescence reading (progress curve) ([14]; Time 3391.39 s): 244 and 216 and 230 | Fluorescence reading (progress curve) ([14]; Time 3421.39 s): 241 and 217 and 230 | Fluorescence reading (progress curve) ([14]; Time 3451.41 s): 245 and 215 and 227 | Fluorescence reading (progress curve) ([14]; Time 3481.42 s): 249 and 217 and 230 | Fluorescence reading (progress curve) ([14]; Time 3511.43 s): 242 and 218 and 229 | Fluorescence reading (progress curve) ([14]; Time 3541.44 s): 244 and 216 and 229 | Fluorescence reading (progress curve) ([14]; Time 3571.45 s): 243 and 214 and 228 | recovery of M^pro activity after 100-fold dilution ([14]; preincubation 30 min): no visible recovery of activity

c1ccc(-c2nnn[nH]2)cc1 [Phenyltetrazole]
Chromatographic Hydrophobicity Index (publication) [1]: 20.18

CCC(=O)c1ccccc1 [Propiophenone]
Chromatographic Hydrophobicity Index (publication) [1]: 78.41

Cn1c(=O)c2[nH]cnc2n(C)c1=O [Theophylline]
Chromatographic Hydrophobicity Index (publication) [1]: 15.76

CCCCC(=O)c1ccccc1 [Valerophenone]
Chromatographic Hydrophobicity Index (publication) [1]: 97.67
